# Non-standard residues stand in square brackets, D forms with d. Residues, ends and D or L forms follow the SMILES beside them. Gly(Nα-4-Cl-benzyl) = O=C(O)CNCc1ccc(Cl)cc1; N(4-Br-benzyl)Gly = O=C(O)CNCc1ccc(Br)cc1; Nspe(4-Br) = C[C@H](NCC(=O)O)c1ccc(Br)cc1; N(4-F-Bzl)Gly = O=C(O)CNCc1ccc(F)cc1; NBzl(4-I)Gly = O=C(O)CNCc1ccc(I)cc1; Nspe = C[C@H](NCC(=O)O)c1ccccc1; Nphe = O=C(O)CNCc1ccccc1; Nlys = NCCCCNCC(=O)O
# Tests used:
# [1] = test system: Methicillin-resistant S. aureus USA 300; type: cell-based, Staphylococcus aureus; settings: USA 300, 18 h
# Procedure: (§1) Bacterial growth inhibition was determined by using broth microdilution according to the Clinical Laboratory Standards Institute[43]. The antibacterial activity of peptoids was tested against S. aureus ATCC 25923, ATCC29213, and methicillin resistant S. aureus USA 300, methicillin resistant S. epidermidis ATCC 51625, a biofilm producing methicillin resistant S. epidermidis ET-024[44], P. aeruginosa Pa01 (H103), and E. coli ATCC 25922. Bacteria, grown on agar plates for 18 h at 37 °C, were diluted to ∼1 × 10^8 CFU/mL in Mueller‐Hinton Broth II (MHB II). Twofold serial dilutions of peptoids in MHB II were inoculated with bacteria to achieve a final concentration of 5 × 10^5 CFU/mL in polypropylene 96 U‐well microtiter plates (Corning 3,897; ThermoFisher Scientific, Roskilde), followed by incubation at 37 °C in ambient air for 18 h. The MIC values were determined as the lowest concentration showing no visible bacterial growth. Experiments were performed twice (in technical triplicates) on 2 different days.
# S. aureus ATCC 25923 = type: cell-based, Staphylococcus aureus; settings: ATCC 25923, 18 h
# Procedure: as §1
# S. aureus ATCC 29213 = type: cell-based, Staphylococcus aureus; settings: ATCC 29213, 18 h
# Procedure: as §1
# [2] = test system: Methicillin-resistant S. epidermidis ATCC 51625; type: cell-based, Staphylococcus epidermidis; settings: ATCC 51625, 18 h
# Procedure: as §1
# [3] = test system: Methicillin-resistant S. epidermidis ET-024; type: cell-based, Staphylococcus epidermidis; settings: Methicillin-resistant ET-024, 18 h
# Procedure: as §1
# E. coli ATCC 25922 = type: cell-based, Escherichia coli; settings: ATCC 25922, 18 h
# Procedure: as §1
# [4] = test system: P. aeruginosa PA01 (H103); type: cell-based, Pseudomonas aeruginosa; settings: H103, 18 h
# Procedure: as §1
MIC MRSA^b [1] [µg/mL],MIC SA^a (S. aureus ATCC 25923) [µg/mL],MIC MRSE^d [2] [µg/mL],MIC MRSE^c [3] [µg/mL],MIC EC^e (E. coli ATCC 25922),MIC PA^f [4] [µg/mL],Structure (SMILES),Minimal inhibitory concentration MRSA^c [1] [µg/mL],Minimal inhibitory concentration SA^a (S. aureus ATCC 25923) [µg/mL],Minimal inhibitory concentration SA^b (S. aureus ATCC 29213) [µg/mL],Minimal inhibitory concentration MRSE^e [2] [µg/mL],Minimal inhibitory concentration MRSE^d [3] [µg/mL],Minimal inhibitory concentration EC^f (E. coli ATCC 25922) [µg/mL],Minimal inhibitory concentration PA^g [4] [µg/mL]
–,–,–,–,–,–,NCCCCNCC(=O)N(CC(=O)N(CCCCN)CC(=O)N(CC(=O)N(CCCCN)CC(=O)N(CC(=O)N(CCCCN)CC(=O)N(CC(N)=O)Cc1ccc(F)cc1)Cc1ccc(F)cc1)Cc1ccc(F)cc1)Cc1ccc(F)cc1 [Compound 11] (H-[Nlys][N(4-F-Bzl)Gly][Nlys][N(4-F-Bzl)Gly][Nlys][N(4-F-Bzl)Gly][Nlys][N(4-F-Bzl)Gly]-NH2),256,256,256,32,64,128,> 512
–,–,–,–,–,–,NCCCCNCC(=O)N(CC(=O)N(CCCCN)CC(=O)N(CC(=O)N(CCCCN)CC(=O)N(CC(N)=O)Cc1ccc(F)cc1)Cc1ccc(F)cc1)Cc1ccc(F)cc1 [Compound 2] (H-[Nlys][N(4-F-Bzl)Gly][Nlys][N(4-F-Bzl)Gly][Nlys][N(4-F-Bzl)Gly]-NH2),512,> 512,> 512,512,128,512,> 512
256,256,64,64,"1,024 μg/mL",256,C[C@@H](c1ccccc1)N(CC(N)=O)C(=O)CN(C(=O)CN(CCCCN)C(=O)CN(C(=O)CN(C(=O)CNCCCCN)[C@@H](C)c1ccccc1)[C@@H](C)c1ccccc1)[C@@H](C)c1ccccc1 [Pep1-6mer] (H-[Nlys][Nspe][Nspe][Nlys][Nspe][Nspe]-NH2),–,–,–,–,–,–,–
–,–,–,–,–,–,NCCCCNCC(=O)N(CC(=O)N(CCCCN)CC(=O)N(CC(=O)N(CCCCN)CC(=O)N(CC(=O)N(CCCCN)CC(=O)N(CC(=O)N(CCCCN)CC(=O)N(CC(=O)N(CCCCN)CC(=O)N(CC(N)=O)Cc1ccc(I)cc1)Cc1ccccc1)Cc1ccc(I)cc1)Cc1ccccc1)Cc1ccc(I)cc1)Cc1ccccc1 [Compound 36] (H-[Nlys][Nphe][Nlys][NBzl(4-I)Gly][Nlys][Nphe][Nlys][NBzl(4-I)Gly][Nlys][Nphe][Nlys][NBzl(4-I)Gly]-NH2),4,8,16,1,4,256,> 512
–,–,–,–,–,–,NCCCCNCC(=O)N(CC(=O)N(CCCCN)CC(=O)N(CC(=O)N(CCCCN)CC(=O)N(CC(N)=O)Cc1ccc(Br)cc1)Cc1ccc(Br)cc1)Cc1ccc(Br)cc1 [Compound 4] (H-[Nlys][N(4-Br-benzyl)Gly][Nlys][N(4-Br-benzyl)Gly][Nlys][N(4-Br-benzyl)Gly]-NH2),16,16,16,4,4,64,> 512
–,–,–,–,–,–,NCCCCNCC(=O)N(CC(=O)N(CCCCN)CC(=O)N(CC(=O)N(CCCCN)CC(=O)N(CC(=O)N(CCCCN)CC(=O)N(CC(=O)N(CCCCN)CC(=O)N(CC(=O)N(CCCCN)CC(=O)N(CC(N)=O)Cc1ccc(Cl)cc1)Cc1ccc(Cl)cc1)Cc1ccc(Cl)cc1)Cc1ccc(Cl)cc1)Cc1ccc(Cl)cc1)Cc1ccc(Cl)cc1 [Compound 30] (H-[Nlys][Gly(Nα-4-Cl-benzyl)][Nlys][Gly(Nα-4-Cl-benzyl)][Nlys][Gly(Nα-4-Cl-benzyl)][Nlys][Gly(Nα-4-Cl-benzyl)][Nlys][Gly(Nα-4-Cl-benzyl)][Nlys][Gly(Nα-4-Cl-benzyl)]-NH2),2,2,2,1,2,64,> 512
–,–,–,–,–,–,NCCCCNCC(=O)N(CC(=O)N(CCCCN)CC(=O)N(CC(=O)N(CCCCN)CC(=O)N(CC(N)=O)Cc1ccc(F)cc1)Cc1ccccc1)Cc1ccc(F)cc1 [Compound 6] (H-[Nlys][N(4-F-Bzl)Gly][Nlys][Nphe][Nlys][N(4-F-Bzl)Gly]-NH2),> 512,> 512,> 512,512,256,> 512,> 512
–,–,–,–,–,–,NCCCCNCC(=O)N(CC(=O)N(CCCCN)CC(=O)N(CC(=O)N(CCCCN)CC(=O)N(CC(N)=O)Cc1ccc(Cl)cc1)Cc1ccc(Cl)cc1)Cc1ccc(Cl)cc1 [Compound 3] (H-[Nlys][Gly(Nα-4-Cl-benzyl)][Nlys][Gly(Nα-4-Cl-benzyl)][Nlys][Gly(Nα-4-Cl-benzyl)]-NH2),16,64,64,8,16,512,512
–,–,–,–,–,–,NCCCCNCC(=O)N(CC(=O)N(CCCCN)CC(=O)N(CC(=O)N(CCCCN)CC(=O)N(CC(=O)N(CCCCN)CC(=O)N(CC(N)=O)Cc1ccc(Cl)cc1)Cc1ccc(Cl)cc1)Cc1ccc(Cl)cc1)Cc1ccc(Cl)cc1 [Compound 12] (H-[Nlys][Gly(Nα-4-Cl-benzyl)][Nlys][Gly(Nα-4-Cl-benzyl)][Nlys][Gly(Nα-4-Cl-benzyl)][Nlys][Gly(Nα-4-Cl-benzyl)]-NH2),2,4,4 to 8,1,2,64,> 512
–,–,–,–,–,–,NCCCCNCC(=O)N(CC(=O)N(CCCCN)CC(=O)N(CC(=O)N(CCCCN)CC(=O)N(CC(=O)N(CCCCN)CC(=O)N(CC(=O)N(CCCCN)CC(=O)N(CC(=O)N(CCCCN)CC(=O)N(CC(N)=O)Cc1ccc(Cl)cc1)Cc1ccccc1)Cc1ccc(Cl)cc1)Cc1ccccc1)Cc1ccc(Cl)cc1)Cc1ccccc1 [Compound 34] (H-[Nlys][Nphe][Nlys][Gly(Nα-4-Cl-benzyl)][Nlys][Nphe][Nlys][Gly(Nα-4-Cl-benzyl)][Nlys][Nphe][Nlys][Gly(Nα-4-Cl-benzyl)]-NH2),8,16,8,1,4,256,> 512
32,64,8,16,> 64 µg/mL,64,C[C@@H](c1ccc(Br)cc1)N(CC(N)=O)C(=O)CN(C(=O)CN(CCCCN)C(=O)CN(C(=O)CN(C(=O)CNCCCCN)[C@@H](C)c1ccccc1)[C@@H](C)c1ccccc1)[C@@H](C)c1ccccc1 [Compound 49] (H-[Nlys][Nspe][Nspe][Nlys][Nspe][Nspe(4-Br)]-NH2),–,–,–,–,–,–,–
